These results are taken from patent US4263302A, “Quinolinecarboxylic acid substituted penicillins and pharmaceutical compositions containing the same” (Mitsui Toatsu Chemicals, Incorporated, priority 1978, dated 1981).

Experiment [1] relates to Enterobacter aerogenes (IFO-3320). Kind of experiment: antibacterial activity, minimum growth inhibitory concentration method (MIC method). Format: cell-based. The note with it: Klebsiella aerogenes, read-out: Minimum growth inhibitory concentration (MIC). On the procedure: (§1) The antibacterial activity was tested by the minimum growth inhibitory concentration method (MIC method).
(§2) A commercially available heart infusion agar medium (to be abbreviated HIA medium) was used as an assay medium, and a commercially available trypto-soy bouillon medium (to be abbreviated TSB) was used as a medium for the growth of test bacterial strains.
(§3) The test compound was diluted with the melted HIA medium to 100 μg/ml as a maximum concentration, and then serially diluted doubly. The dilutions were poured into sterilized Petri dishes respectively and allowed to cool and solidify to prepare plates containing the test compound.
(§4) As a control, carbenicillin sodium (CB-PC) was used.
(§5) The test strain was cultivated in the TBS medium at 37° C. for 18 hours, and the culture broth was diluted with a freshly prepared TBS medium to 50 to 500 times, and one platinum loopful of the dilution was inoculated in each of the plates containing the test compound. The plate was incubated at 37° C. for 18 hours. The state of growth of the strain on the plate was observed, and the minimum growth inhibitory concentration (MIC) of the compound was determined.

For a further experiment, the system named is Escherichia coli (K-12). Described as above. The note with it: HIA medium, 37° C., 18 hours. Format: cell-based. On the procedure:
as §1, §2, §3, §4, §5

Experiment [2] has as its system Klebsiella pneumoniae (ATCC 10031). The description is as above. The experiment is classed as cell-based. The note with it: ATCC10031, HIA medium, 37° C., 18 hours. On the procedure:
as §1, §2, §3, §4, §5

Another experiment relates to Proteus vulgaris (OX-19). The experiment is described as above. The experiment is classed as cell-based. The note with it: HIA medium, 37° C., 18 hours. On the procedure:
as §1, §2, §3, §4, §5

In experiment [3] the test system is Pseudomonas aeruginosa (395). The description is as above. Format: cell-based. The note with it: HIA medium, 37° C., 18 hours. The method, then: as §1, §2, §3, §4, §5
The test system of experiment [4] is Pseudomonas aeruginosa (IFO-3901). The experiment is described as above. Format: cell-based. The note with it: IFO3901, HIA medium, 37° C., 18 hours. On the procedure:
as §1, §2, §3, §4, §5

Experiment [5] has as its system Salmonellaenteritidis (KB-21). Described as above. Format: cell-based. The note with it: read-out: Minimum growth inhibitory concentration (MIC). The method, then: as §1, §2, §3, §4, §5
The subject of experiment [6] is Serratia marcescens (S-33). The experiment is described as above. The experiment is classed as cell-based. The note with it: HIA medium, 37° C., 18 hours. On the procedure:
as §1, §2, §3, §4, §5

Another experiment has as its system Shigella flexneri (K-A). Described as above. The experiment is classed as cell-based. The note with it: HIA medium, 37° C., 18 hours. The method, then: as §1, §2, §3, §4, §5
Experiment [7] has as its system Staphylococcus aureus (FDA 209P). The experiment is described as above. The note with it: FDA209P, read-out: Minimum growth inhibitory concentration (MIC). Format: cell-based. On the procedure: as §1, §2, §3, §4, §5
For experiment [8], the system named is Staphylococcus aureus (Y-8). Described as above. The experiment is classed as cell-based. The note with it: HIA medium, 37° C., 18 hours. On the procedure:
as §1, §2, §3, §4, §5

A further experiment concerns Pseudomonas aeruginosa. The note with it: in words, background literature; cited from earlier work.
Where [9] appears, read: IFO3320, Enterobacter aerogenes (IFO-3320), HIA medium, 37° C., 18 hours.
The mark [10] stands for this setting: Salmonellaenteritidis (KB-21), HIA medium, 37° C., 18 hours.

≈ marks a conversion by molar mass, not a printed value. Read-outs that look alike come from different tables or passages of the source. Bounds are passed on as bounds.

Turning to `CCn1cc(C(=O)N[C@@H](C(=O)N[C@@H]2C(=O)N3[C@@H]2SC(C)(C)[C@@H]3C(=O)O)c2ccccc2)c(=O)c2c1CCCC2=O` [Synthesis Example 2, 6-[D-(-)-α-(1-ethyl-4,5-dioxo-1,4,5,6,7,8-hexahydroquinoline-3-carboxamodo)phenylacetamido]-penicillanic acid], the MIC turned out to be 1.56 µg/mL (≈ 2.75 µM) in experiment [1] (setting [9]); 3.13 µg/mL (≈ 5.52 µM) in the experiment on Escherichia coli (K-12); 25 µg/mL (≈ 44.1 µM) in [2]; 3.13 µg/mL (≈ 5.52 µM) in the experiment with Proteus vulgaris (OX-19); 3.13 µg/mL (≈ 5.52 µM) in experiment [3]; 6.25 µg/mL (≈ 11 µM) in experiment [4]. Besides, the MIC in [5] (setting [10]) stood at 0.78 µg/mL (≈ 1.38 µM); in experiment [6] it was 3.13 µg/mL (≈ 5.52 µM); in the experiment with Shigella flexneri (K-A), 0.78 µg/mL (≈ 1.38 µM); in [7] (Staphylococcus aureus (FDA 209P), HIA medium, 37° C., 18 hours) it was 1.56 µg/mL (≈ 2.75 µM); in experiment [8] it was 6.25 µg/mL (≈ 11 µM).

Take `CC1(C)S[C@@H]2[C@H](NC(=O)C(C(=O)O)c3ccccc3)C(=O)N2[C@H]1C(=O)O` (stereo partly drawn) [CB--PC, disodium-α-carboxybenzyl penicillin, reference compound]: the MIC is 1.56 µg/mL in experiment [1] (IFO3320, 18 h); 6.25 µg/mL in the experiment on Escherichia coli (K-12); over 100 µg/mL in experiment [2]; 3.13 µg/mL in the experiment on Proteus vulgaris (OX-19); 25 µg/mL in experiment [3]; 100 µg/mL in [4]. For the same compound, the MIC in [5] (18 h) worked out at 1.56 µg/mL; in experiment [6] it was 3.13 µg/mL; with Shigella flexneri (K-A), 1.56 µg/mL; in experiment [7] (Staphylococcus aureus, 18 h), 1.56 µg/mL; in experiment [8], 6.25 µg/mL. For the same compound, in the experiment on Pseudomonas aeruginosa, the “activity on Pseudomonas aeruginosa” value is reported as “low activity”. The “effect on Pseudomonas aeruginosa-induced infections of difficultly-curable nature” value in the experiment with Pseudomonas aeruginosa is listed as “ineffective”.

As to `CC1(C)CC(=O)c2c([nH]cc(C(=O)N[C@@H](C(=O)N[C@@H]3C(=O)N4[C@@H]3SC(C)(C)[C@@H]4C(=O)O)c3ccccc3)c2=O)C1` [Synthesis Example 1, 6-[D-(-)-α-(7,7-dimethyl-4,5-dioxo-1,4,5,6,7,8-hexahydroquinoline-3-carboxamido)phenylacetamido]-penicillanic acid], the MIC in [1] (setting [9]) turned out to be 0.78 µg/mL (≈ 1.38 µM); in the experiment on Escherichia coli (K-12) it was 0.78 µg/mL (≈ 1.38 µM); in experiment [2] it was 12.5 µg/mL (≈ 22.1 µM); with Proteus vulgaris (OX-19), 1.56 µg/mL (≈ 2.75 µM); in experiment [3], 1.56 µg/mL (≈ 2.75 µM); in experiment [4], 6.25 µg/mL (≈ 11 µM). Further, the MIC was 0.39 µg/mL (≈ 0.688 µM) in experiment [5] (setting [10]); 3.13 µg/mL (≈ 5.52 µM) in [6]; 0.39 µg/mL (≈ 0.688 µM) in the experiment on Shigella flexneri (K-A); 1.56 µg/mL (≈ 2.75 µM) in experiment [7] (Staphylococcus aureus, 18 h); 6.25 µg/mL (≈ 11 µM) in experiment [8].
